#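 1) Cells in 96-well plates. 2) Compound, 48 h, 5 concentrations. 3) Linear interpolation between surrounding doses. 4) Unreached endpoint = highest concentration. GI50 = concentration required for 50% inhibition of growth.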 Activity calls are given as the source filed them. No stated cut-off is given here; in the data, active = GI50 up to about 1.1 µM and inactive = higher.
# Columns and labels:
# Assay in all cases: NCI tumour cell line growth inhibition, 48 h
# SNB-75 = test system: SNB-75
# DU-145 = test system: DU-145
# A498 = test system: A498
# PC-3 = test system: PC-3
# RXF 393 = test system: RXF 393
# DLD-1 = test system: DLD-1
# CAKI-1 = test system: CAKI-1
# NCI/ADR-RES = test system: NCI/ADR-RES
# MDA-N = test system: MDA-N
# HL-60 = test system: HL-60
# HCC 2998 = test system: HCC 2998
# SK-OV-3 = test system: SK-OV-3
# MCF7 = test system: MCF7
# MDA-MB-435 = test system: MDA-MB-435
# MDA-MB-231 = test system: MDA-MB-231
# 786-0 = test system: 786-0
# HOP-92 = test system: HOP-92
# Hs-578T = test system: Hs-578T
# SR = test system: SR
# NCI-H522 = test system: NCI-H522
Structure (SMILES),GI50 (SNB-75),GI50 (DU-145),GI50 (A498),GI50 (PC-3),GI50 (RXF 393),GI50 (DLD-1),GI50 (CAKI-1),GI50 (NCI/ADR-RES),GI50 (MDA-N),GI50 (HL-60),GI50 (HCC 2998),GI50 (SK-OV-3),GI50 (MCF7),GI50 (MDA-MB-435),GI50 (MDA-MB-231),GI50 (786-0),GI50 (HOP-92),GI50 (Hs-578T),GI50 (SR),GI50 (NCI-H522)
"O=C1/C(=C/c2ccccc2)CCC/C1=C\c1ccccc1 [2,6-DIBENZYLIDENECYCLOHEXANONE]",20.2 µM (inactive),6.97 µM (inactive),16.1 µM (inactive),5.89 µM (inactive),17.8 µM (inactive),3.04 µM (inactive),23.4 µM (inactive),8.77 µM (inactive),2.79 µM (inactive),2.8 µM (inactive),12.2 µM (inactive),21.4 µM (inactive),1.74 µM (inactive),5.62 µM (inactive),6.07 µM (inactive),12.8 µM (inactive),17.5 µM (inactive),8.2 µM (inactive),9.71 µM (inactive),–
CCOC(=O)C1C(=O)CN2CCc3c([nH]c4ccccc34)C12C(=O)OCC (centres undefined),> 100 µM (inactive),–,> 100 µM (inactive),–,> 100 µM (inactive),> 100 µM (inactive),> 100 µM (inactive),–,–,> 100 µM (inactive),> 100 µM (inactive),> 100 µM (inactive),–,–,–,> 100 µM (inactive),> 100 µM (inactive),–,> 100 µM (inactive),> 100 µM (inactive)
COC(=O)C(=O)C(C(=O)OC)C(=O)C(=O)Nc1cc(Cl)c(Cl)cc1Cl (centres undefined),> 100 µM (inactive),–,> 100 µM (inactive),–,> 100 µM (inactive),76.4 µM (inactive),> 100 µM (inactive),–,–,> 100 µM (inactive),> 100 µM (inactive),> 100 µM (inactive),–,–,–,> 100 µM (inactive),> 100 µM (inactive),–,24.8 µM (inactive),> 100 µM (inactive)
C[C@@H]1O[C@]2(O)[C@@H]3CCCN3S(=O)(=O)CCN2C1=O,> 100 µM (inactive),–,> 100 µM (inactive),–,> 100 µM (inactive),> 100 µM (inactive),> 100 µM (inactive),–,–,> 100 µM (inactive),> 100 µM (inactive),> 100 µM (inactive),–,–,–,> 100 µM (inactive),> 100 µM (inactive),–,> 100 µM (inactive),> 100 µM (inactive)
C/C(=C/c1c(C)[nH]c(=O)[nH]c1=O)C(=O)O,> 1370 µM (inactive),–,> 1370 µM (inactive),–,> 1370 µM (inactive),> 1370 µM (inactive),> 1370 µM (inactive),> 1370 µM (inactive),–,> 1370 µM (inactive),> 1370 µM (inactive),> 1370 µM (inactive),> 1370 µM (inactive),–,–,–,–,–,–,> 1370 µM (inactive)
COc1ccc(NC(=O)C(=O)NO)c(OC)c1,16.5 µM (inactive),–,21.5 µM (inactive),–,15.6 µM (inactive),21.5 µM (inactive),13.8 µM (inactive),–,–,17.1 µM (inactive),21.4 µM (inactive),19.5 µM (inactive),–,–,–,16 µM (inactive),20.6 µM (inactive),–,0.239 µM (active),5.92 µM (inactive)
CN(/N=C/c1cccc2cccnc12)c1ccc([N+](=O)[O-])cc1[N+](=O)[O-],10.1 µM (inactive),65.5 µM (inactive),17.4 µM (inactive),55 µM (inactive),17.1 µM (inactive),44.7 µM (inactive),24.4 µM (inactive),39.8 µM (inactive),> 100 µM (inactive),40.8 µM (inactive),71 µM (inactive),20.6 µM (inactive),40.8 µM (inactive),> 100 µM (inactive),23.1 µM (inactive),13.3 µM (inactive),14.8 µM (inactive),9.71 µM (inactive),–,16.4 µM (inactive)
N#CCC(=O)N/N=C1\C(=O)N(c2ccc(Cl)cc2)C(=O)C(=O)C1c1nc2ccccc2o1 (centres undefined),> 100 µM (inactive),–,> 100 µM (inactive),–,> 100 µM (inactive),> 100 µM (inactive),> 100 µM (inactive),–,–,> 100 µM (inactive),> 100 µM (inactive),> 100 µM (inactive),–,–,–,> 100 µM (inactive),91.8 µM (inactive),–,> 100 µM (inactive),> 100 µM (inactive)

# Source: ChEMBL document CHEMBL1201862, “PubChem BioAssay data set” (2004)
